Assay results taken from the supplement of paper PMC10307832.

Legend:
Assay in all cases: relative viability (nuclei count vs DMSO), 5 days (fraction); higher = more cells survive
[1] = compound: CCN1C(=O)C2=CC(=C(N=C2N(C1=O)C3CC3)N)C(=O)N + COc1cccc2cc(-c3nc([C@H]4CC[C@H](C(=O)O)CC4)n4ncnc(N)c34)[nH]c12 [OSI-027] (partner 0.5 µM)
Method in brief: (§1)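 The day after seeding in 1536-well plates, lung cancer cell lines were treated by pin tool with a single drug, or with a fixed anchor-drug dose together with five library-drug doses (not always all listed) in √10 steps. After 5 days, a combined fix-and-stain solution (final 0.05% Triton X-100, 1% formaldehyde, 1 ug/ml Hoechst) was added. Nuclei counted on 4× images gave relative viability as treated counts over vehicle counts, reported as the median of duplicate plates.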

[2] = compound: CCN1C(=O)C2=CC(=C(N=C2N(C1=O)C3CC3)N)C(=O)N + CC(C)C[C@H](NC(=O)[C@H](Cc1ccccc1)NC(=O)c1cnccn1)B(O)O [Bortezomib] (partner 0.002 µM)
Method in brief: as §1

[3] = compound: CCN1C(=O)C2=CC(=C(N=C2N(C1=O)C3CC3)N)C(=O)N + CC1(C)CCC(c2ccc(Cl)cc2)=C(CN2CCN(c3ccc(C(=O)NS(=O)(=O)c4ccc(N[C@H](CCN5CCOCC5)CSc5ccccc5)c(S(=O)(=O)C(F)(F)F)c4)cc3)CC2)C1 [Navitoclax] (partner 0.5 µM)
Method in brief: as §1

[4] = compound: CCN1C(=O)C2=CC(=C(N=C2N(C1=O)C3CC3)N)C(=O)N + CS(=O)(=O)CCNCc1ccc(-c2ccc3ncnc(Nc4ccc(OCc5cccc(F)c5)c(Cl)c4)c3c2)o1 [Lapatinib] (partner 2 µM)
Method in brief: as §1

[5] = compound: CCN1C(=O)C2=CC(=C(N=C2N(C1=O)C3CC3)N)C(=O)N + CS(=O)(=O)N1CCN(Cc2cc3nc(-c4cccc5[nH]ncc45)nc(N4CCOCC4)c3s2)CC1 [Pictilisib] (partner 1 µM)
Method in brief: as §1

Row | Cell Line | relative viability ([1]; first compound 0.253 µM) | relative viability ([1]; first compound 0.8 µM) | relative viability ([1]; first compound 2.53 µM) | relative viability ([1]; first compound 8 µM) | relative viability ([2]; first compound 0.253 µM) | relative viability ([2]; first compound 0.8 µM) | relative viability ([2]; first compound 2.53 µM) | relative viability ([2]; first compound 8 µM) | relative viability ([3]; first compound 0.253 µM) | relative viability ([3]; first compound 0.8 µM) | relative viability ([3]; first compound 2.53 µM) | relative viability ([3]; first compound 8 µM) | relative viability ([4]; first compound 0.253 µM) | relative viability ([4]; first compound 0.8 µM) | relative viability ([4]; first compound 2.53 µM) | relative viability ([4]; first compound 8 µM) | relative viability ([5]; first compound 0.253 µM) | relative viability ([5]; first compound 0.8 µM) | relative viability ([5]; first compound 2.53 µM) | relative viability ([5]; first compound 8 µM)
1 | PC-3 [JPC-3] | 0.746 | 0.85 | 0.735 | 0.791 | 0.874 | 0.799 | 0.914 | 0.801 | 0.747 | 0.838 | 0.861 | 0.755 | 0.486 | 0.416 | 0.481 | 0.476 | 0.729 | 0.696 | 0.69 | 0.737
2 | UMC-11 | 0.5 | 0.463 | 0.506 | 0.521 | 0.714 | 0.649 | 0.674 | 0.836 | 0.312 | 0.277 | 0.308 | 0.324 | 1.12 | 0.909 | 1 | 0.9 | 0.891 | 0.865 | 0.767 | 0.853
3 | NCI-H1437 | 0.939 | 0.867 | 0.919 | 0.894 | 0.489 | 0.543 | 0.515 | 0.618 | 1.12 | 1.09 | 1.07 | 1.12 | 0.818 | 0.794 | 0.829 | 0.838 | 0.433 | 0.416 | 0.445 | 0.465
4 | NCI-H1734 | 0.734 | 0.554 | 0.531 | 0.596 | 0.953 | 0.999 | 0.918 | 1 | 0.737 | 0.813 | 0.778 | 0.888 | 1.08 | 1.07 | 1.03 | 1.1 | 0.456 | 0.495 | 0.44 | 0.473
5 | HCC-15 | 0.648 | 0.72 | 0.685 | 0.663 | 0.992 | 1.11 | 0.979 | 1 | 0.692 | 0.753 | 0.683 | 0.69 | 0.816 | 0.903 | 0.782 | 0.859 | 0.699 | 0.79 | 0.793 | 0.801
6 | HCC-366 |  | 0.938 | 0.877 | 0.743 | 1.03 | 1 | 1 | 0.997 | 0.985 | 0.991 | 1.1 | 1.05 | 1.06 | 0.966 | 0.988 | 1.05 | 0.168 | 0.162 | 0.0835 | 0.11
7 | NCI-H2347 | 0.481 | 0.344 | 0.384 | 0.346 | 0.982 | 0.933 | 1.19 | 0.778 | 0.816 | 0.871 | 0.801 | 0.749 | 0.94 | 1.01 | 0.985 | 0.937 | 0.475 | 0.711 | 0.566 | 0.782
8 | LXF-289 | 0.827 | 0.864 | 0.815 | 0.793 | 0.987 | 0.997 | 0.966 | 0.994 | 0.93 | 0.951 | 1.01 | 0.95 | 0.867 | 0.951 | 0.938 | 0.89 | 0.831 | 0.85 | 0.819 | 0.775
9 | BEN | 0.297 | 0.321 | 0.273 | 0.295 | 0.951 | 0.68 | 1.1 | 0.697 | 0.074 | 0.0565 | 0.0783 | 0.0841 | 0.776 | 0.638 | 0.827 | 0.697 | 0.539 | 0.522 | 0.62 | 0.519
10 | NCI-H2023 | 0.449 | 0.365 | 0.386 | 0.34 | 0.829 | 0.915 | 0.95 | 0.984 | 0.946 | 1.02 | 0.955 | 0.95 | 0.51 | 0.813 | 0.777 | 0.776 | 0.229 | 0.218 | 0.23 | 0.26
11 | NCI-H727 | 0.59 | 0.528 | 0.654 | 0.723 | 0.806 | 0.843 | 0.805 | 0.875 | 0.463 | 0.51 | 0.484 | 0.596 | 0.925 | 0.69 | 0.814 | 0.857 | 0.441 | 0.375 | 0.428 | 0.508
12 | NCI-H1355 | 0.5 | 0.464 | 0.455 | 0.376 | 1.22 | 1.3 | 1.22 | 1.25 | 0.969 | 0.987 | 0.861 | 0.921 | 1.08 | 1.06 | 0.998 | 1.01 | 0.324 | 0.513 | 0.419 | 0.505
13 | COR-L 105 | 0.873 | 0.729 | 0.634 | 0.651 | 0.866 | 0.709 | 0.856 | 0.738 | 0.847 | 0.74 | 0.586 | 0.794 | 0.308 | 0.339 | 0.424 | 0.398 | 0.453 | 0.366 | 0.412 | 0.369
14 | NCI-H2228 | 0.557 | 0.674 | 0.633 | 0.645 | 1.03 | 1.01 | 1.12 | 1.24 | 0.996 | 1.29 | 0.925 | 0.838 | 0.893 | 1.1 | 1.26 | 1.26 | 0.393 | 0.368 | 0.353 | 0.4
15 | PC-14 | 0.856 | 0.799 | 0.831 | 0.907 | 0.966 | 0.932 | 0.807 | 0.919 | 1.01 | 1.06 | 0.935 | 0.956 | 0.293 | 0.287 | 0.303 | 0.315 | 0.73 | 0.58 | 0.758 | 0.879
16 | EMC-BAC-2 | 0.474 | 0.336 | 0.33 | 0.379 | 1.12 | 1.04 | 0.9 | 1.06 | 1.2 | 1.17 | 1.18 | 1.32 | 0.937 | 0.849 | 0.859 | 0.888 | 0.642 | 0.536 | 0.456 | 0.584
17 | LU99A | 0.34 | 0.294 | 0.284 | 0.288 | 1.25 | 1.16 | 1.06 | 1.19 | 0.778 | 0.741 | 0.747 | 0.875 | 1.04 | 0.984 | 0.984 | 1.09 | 0.305 | 0.332 | 0.303 | 0.363
18 | RERF-LC-KJ | 0.6 | 0.638 | 0.584 | 0.632 | 1.01 | 1.03 | 1.02 | 1.01 | 1.21 | 0.947 | 0.767 | 0.923 | 0.897 | 0.882 | 0.909 | 0.86 | 0.488 | 0.455 | 0.508 | 0.55
19 | NCI-H647 | 0.598 | 0.724 | 0.647 | 0.591 | 0.92 | 1.05 | 0.951 | 0.784 | 1.18 | 1.25 | 1.14 | 1.08 | 1.09 | 1.13 | 0.992 | 1.13 | 0.424 |  | 0.432 | 0.462
20 | LCLC-97TM1 | 0.466 | 0.371 | 0.441 | 0.56 | 0.873 | 0.326 | 1.27 | 0.625 | 0.431 |  |  | 0.53 | 1.01 |  |  | 1.05 | 0.203 |  |  | 0.223
21 | NCI-H1993 | 0.578 | 0.558 | 0.523 | 0.534 | 1.05 | 0.925 | 0.983 | 1.11 | 0.994 | 0.875 | 0.797 | 0.757 | 0.782 | 0.817 | 0.815 | 0.823 | 0.706 | 0.832 | 0.786 | 0.758
22 | HARA | 0.415 | 0.576 | 0.473 | 0.54 | 1.18 | 1.12 | 1.11 | 1.15 | 1.15 | 1.13 | 1.08 | 1.12 | 0.809 | 0.688 | 0.839 | 0.69 | 0.403 | 0.36 | 0.379 | 0.486
23 | NCI-H460 | 0.586 | 0.599 | 0.577 | 0.547 | 1.16 | 1.03 | 0.983 | 1.23 | 1.17 | 1.08 | 1.07 | 1.14 | 1.04 | 1.07 | 0.902 | 1.02 | 0.372 | 0.339 | 0.461 | 0.341
24 | NCI-H1650 | 0.577 | 0.444 | 0.629 | 0.544 | 0.192 | 0.185 | 0.182 | 0.187 | 1.1 | 1.25 | 1.1 | 1.19 | 0.337 | 0.815 | 0.746 | 0.904 | 0.501 | 0.547 | 0.521 | 0.589
25 | EKVX | 0.803 | 0.751 | 0.675 | 0.498 | 1.18 | 1.14 | 1.07 | 0.901 | 0.929 | 0.897 | 0.952 | 0.989 | 0.23 | 0.25 | 0.222 | 0.196 | 0.439 | 0.411 | 0.388 | 0.438
26 | NCI-H1755 | 0.744 | 0.749 | 0.703 | 0.72 | 0.949 | 0.966 | 0.921 | 0.948 | 1.03 | 0.936 | 0.98 | 0.938 | 0.999 | 1.09 | 0.779 | 1.02 | 0.431 | 0.405 | 0.452 | 0.488
27 | NCI-H1792 | 0.69 | 0.696 | 0.733 | 0.651 | 0.983 | 0.861 | 1.03 | 1.06 | 0.648 | 0.533 | 0.834 | 0.564 | 0.993 | 0.859 | 1.1 | 0.769 | 0.312 | 0.28 | 0.355 | 0.3
